US20120004245A1, “COMPOUNDS FOR THE TREATMENT OF POSTERIOR SEGMENT DISORDERS AND DISEASES” (ALCON RESEARCH, LTD., priority 2010, published 2012)
Where two headings read alike, the source gives them in different places.

Tests used:
[1] = tested on: bovine retinal endothelial cells (BRECs); experiment: VEGF-induced proliferation of bovine retinal endothelial cells (BrdU ELISA); type: cell-based; conditions: for EC50: Bos taurus, Endothelial cell, read-out: VEGF ind BREC prolif EC50; for activity against VEGF-induced proliferation: in words, compared to Compounds I-VII
Description: METHODS. […] After another 22-24 hours the cells are treated with or without 50 ng/ml VEGF media and the test compounds in the 1% FBS media. After 30 hours BrdU is then added for the final 16 hours of the incubation. All cells are then fixed and assayed with a colorimetric BrdU ELISA kit.

[2] = tested on: VEGF-induced retinal vascular permeability; experiment: VEGF-induced retinal vascular permeability in the rat, intravitreal delivery; type: in vivo; conditions: for Efficacy (0.1%) / Efficacy (1%): inhibition of VEGF-induced RVP vs vehicle-injected controls, *P<0.05; for Efficacy (0.1%): single ivt injection of 0.1% suspension; for Efficacy (1%): single ivt injection of 1% suspension; for ED50 (nmole) / ED50 (μg) / Potency: rat VEGF-induced RVP; for ED50 (nmole) / ED50 (μg): dose-response, single ivt injection; for Potency: relative to reference standard, * = equipotent, 95% CL encompass 1.0
Description: METHODS: Adult Sprague-Dawley rats were anesthetized with intramuscular ketamine/xylazine and their pupils dilated with topical cycloplegics. […] Ten μl of each compound was intravitreally injected in each treatment eye (n=5˜6 animals per group). Three days following first intravitreal injection, all animals received an intravitreal injection of 10 μl 500 ng hr VEGF in both eyes. Twenty-four hours post-injection of VEGF, intravenous infusion of 3% Evans blue dye was performed in all animals, where 50 mg/kg of Evans blue dye was injected via the lateral tail vein during general anesthesia. After the dye had circulated for 90 minutes, the rats were euthanized. The rats were then systemically perfused with balanced salt solution, and then both eyes of each rat were immediately enucleated and the retinas harvested using a surgical microscope. After measurement of the retinal wet weight, the Evans blue dye was extracted by placing the retina in a 0.2 ml formamide (Sigma) and then the homogenized and ultracentrifuged. Blood samples were centrifuged and the plasma diluted 100 fold in formamide. For both retina and plasma samples, 60 μl of supernatant was used to measure the Evans blue dye absorbance (ABS) with at 620/740 nm. The blood-retinal barrier breakdown and subsequent retinal vascular permeability as measured by dye absorbance were calculated as means+/−s.e.m. of net ABS/wet weight/plasma ABS. One way ANOVA was used to determine an overall difference between treatment means. And a test or Man-Whitney rank sum test was performed for a pair-wise comparison between treatment groups, where P<0.05 was considered significant.

[3] = tested on: preretinal neovascularization; experiment: Rat oxygen-induced retinopathy (OIR) model, prevention; type: in vivo; conditions: for ED50 (nmole) / ED50 (μg) / Potency: Rat OIR Prevention; for ED50 (nmole) / ED50 (μg): dose-response, single ivt injection; for Potency: relative to reference RTKi (=1); for Efficacy (0.1%) Median-value / Efficacy (1%) Median-value: rat OIR prevention, vs vehicle, *P<0.05; for Efficacy (0.1%) Median-value: single ivt injection of 0.1% suspension; for Efficacy (1%) Median-value: single ivt injection of 1% suspension
From the text: (§1) METHODS: Pregnant Sprague-Dawley rats were received at 14 days gestation and subsequently gave birth on Day 22±1 of gestation. Immediately following parturition, pups were pooled and randomized into separate litters (n=17 pups/litter), placed into separate shoebox cages inside oxygen delivery chamber, and subjected to an oxygen-exposure profile from Day 0-14 postpartum. Litters were then placed into room air from Day 14/0 through Day 14/6 (days 14-20 postpartum). For prevention studies, each pup was randomly assigned into various treatment groups on Day 14/0. For those randomized into an injection treatment group: one eye received a 5 μl intravitreal injection of between 0.01%-1% of a RTKi and the contralateral eye received a 5 μl intravitreal injection of vehicle. At Day 14/6 (20 days postpartum), all animals were euthanized. For regression studies, each pup was randomly assigned as an oxygen-exposed control or into various treatment groups on […]. For those randomized into an injection treatment group: one eye received a 5 μl intravitreal injection of between 0.01%-1% RTKi and the contralateral eye received a 5 μl intravitreal injection of vehicle. At Day 14/7 (21 days postpartum), all animals were euthanized. Immediately following euthanasia, retinas from all rat pups were harvested, fixed in 10% neutral buffered formalin for 24 hours, subjected to ADPase staining, and fixed onto slides as whole mounts. Digital images were acquired from each retinal flat mount that was adequately prepared. Computerized image analysis was used to obtain a NV clockhour score from each readable sample. Each clockhour out of 12 total per retina was assessed for the presence or absence of preretinal NV. Statistical comparisons using median scores for NV clockhours from each treatment group were utilized in nonparametric analyses. Each noninjected pup represented one NV score by taking the average value of both eyes and was used in comparisons against each dosage group. Because the pups were randomly assigned and no difference was observed between oxygen-exposed control pups from all litters, the NV scores were combined for all treatment groups. P≦0.05 was considered statistically significant.

[4] = tested on: preretinal neovascularization; experiment: Rat oxygen-induced retinopathy (OIR) model, regression; type: in vivo; conditions: for ED50 (nmole) / ED50 (μg): dose-response, single ivt injection; for Potency: relative to reference RTKi (=1)
From the text: as §1

[5] = tested on: laser-induced choroidal neovascularization (CNV); experiment: Mouse laser-induced CNV, prevention; conditions: single ivt injection
From the text: METHODS. CNV was generated by laser-induced rupture of Bruch's membrane. […] A hand-held cover slip was applied to the cornea and used as a contact lens to aid visualization of the fundus. Three to four retinal burns were placed in randomly assigned eye (right or left eye for each mouse) using the Alcon 532 nm EyeLite laser with a slit lamp delivery system. The laser burns were used to generate a rupture in Bruch's membrane, which was indicated ophthalmoscopically by the formation of a bubble under the retina. Only mice with laser burns that produced three bubbles per eye were included in the study. Burns were typically placed at the 3, 6, 9 or 12 o'clock positions in the posterior pole of the retina, avoiding the branch retinal arteries and veins.
Each mouse was randomly assigned into one of the following treatment groups: noninjected controls, sham-injected controls, vehicle-injected mice, or one of three Compound-injected groups. Control mice received laser photocoagulation in both eyes, where one eye received a sham injection, i.e. a pars plana needle puncture. For intravitreal-injected animals, one laser-treated eye received a 2 or 5 μl intravitreal injection of 0.1%-3% of a RTKi or vehicle. For prevention studies, the intravitreal injection was performed immediately after laser photocoagulation. […] At 14 days post-laser, all mice were anesthetized and systemically perfused with fluorescein-labeled dextran. Eyes were then harvested and prepared as choroidal flat mounts with the RPE side oriented towards the observer. All choroidal flat mounts were examined using a fluorescent microscope. Digital images of the CNV were captured, where the CNV was identified as areas of hyperfluorescence within the pigmented background. Computerized image analysis was used to delineate and measure the two dimensional area of the hyperfluorescent CNV per lesion (μm^2) for the outcome measurement. The median CNV area/burn per mouse per treatment group or the mean CNV area/burn per treatment group was used for statistical analysis depending on the normality of data distribution; P<0.05 was considered significant.

KDR (VEGFR2) kinase = target: T1, KDR (VEGFR2) kinase (Homo sapiens, UniProt P35968); experiment: KDR HTRF kinase assay (KinEASE-TK); type: biochemical; conditions: for IC50: HTRF enzyme assay, KDR (human VEGFR2); for activity against KDR: in words, compared to Compounds I-VII
T1 construct: purchased Cell Signaling Technology
T1 sequence (P35968 20-1356): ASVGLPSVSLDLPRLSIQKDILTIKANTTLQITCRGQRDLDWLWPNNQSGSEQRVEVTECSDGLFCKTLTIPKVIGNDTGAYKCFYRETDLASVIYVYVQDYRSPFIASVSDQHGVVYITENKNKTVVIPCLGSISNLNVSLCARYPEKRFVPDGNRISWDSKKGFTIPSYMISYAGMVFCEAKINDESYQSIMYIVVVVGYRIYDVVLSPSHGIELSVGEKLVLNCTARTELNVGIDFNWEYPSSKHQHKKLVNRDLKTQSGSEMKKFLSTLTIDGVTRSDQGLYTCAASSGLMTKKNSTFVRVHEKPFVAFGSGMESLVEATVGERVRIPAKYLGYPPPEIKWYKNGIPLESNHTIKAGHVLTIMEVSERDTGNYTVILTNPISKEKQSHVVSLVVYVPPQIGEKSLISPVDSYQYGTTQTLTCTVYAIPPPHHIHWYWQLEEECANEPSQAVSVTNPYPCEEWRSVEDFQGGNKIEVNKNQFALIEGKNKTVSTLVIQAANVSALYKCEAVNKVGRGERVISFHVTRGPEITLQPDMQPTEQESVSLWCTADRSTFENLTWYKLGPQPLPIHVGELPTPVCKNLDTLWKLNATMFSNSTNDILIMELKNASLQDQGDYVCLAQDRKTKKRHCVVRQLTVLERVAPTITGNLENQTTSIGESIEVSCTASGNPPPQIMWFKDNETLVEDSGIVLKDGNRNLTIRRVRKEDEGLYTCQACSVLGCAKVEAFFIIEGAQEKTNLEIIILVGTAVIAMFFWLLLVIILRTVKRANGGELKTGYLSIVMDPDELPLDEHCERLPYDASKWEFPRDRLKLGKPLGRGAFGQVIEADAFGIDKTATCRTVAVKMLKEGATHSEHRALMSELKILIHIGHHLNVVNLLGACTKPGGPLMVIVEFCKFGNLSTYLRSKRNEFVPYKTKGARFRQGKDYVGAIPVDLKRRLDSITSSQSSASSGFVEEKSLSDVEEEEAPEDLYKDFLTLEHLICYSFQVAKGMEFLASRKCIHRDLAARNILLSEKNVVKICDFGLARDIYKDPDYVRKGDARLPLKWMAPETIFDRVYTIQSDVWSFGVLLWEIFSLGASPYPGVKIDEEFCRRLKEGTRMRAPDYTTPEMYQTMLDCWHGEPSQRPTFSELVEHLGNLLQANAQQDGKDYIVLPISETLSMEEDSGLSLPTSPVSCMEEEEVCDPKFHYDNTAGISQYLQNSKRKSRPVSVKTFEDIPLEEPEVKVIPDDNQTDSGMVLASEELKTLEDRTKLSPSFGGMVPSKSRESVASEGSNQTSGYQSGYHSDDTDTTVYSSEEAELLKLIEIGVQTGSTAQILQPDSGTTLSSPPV
Description: METHODS. A 7-point HTRF (Homogeneous Time Resolved Fluorescence) kinase assays were performed using a Biomek 3000 Robotic Workstation in a 96-well plate format to determine IC50 values for the test compounds for KDR (VEGFR2) kinase using KinEASE-TK kit from CisBio. This is a general kit for tyrosine kinases including KDR kinase. The KDR kinase was purchased from Cell Signaling Technology. The assay is run in two steps. The phosphorylation of the biotin-tagged generic peptide substrate ([…]) is initiated by the addition of ATP ([…]) in the presence of KDR kinase (5 ng in […] reaction mixture) in step 1 and the reaction is stopped after 30 min incubation at room temperature by the addition of a mixture containing two HTRF detection reagents and EDTA in step 2. The substrate, enzyme, and ATP dilutions were made with the buffer provided by CisBio. Compound dilutions were made either in 5% DMSO or 10:10, (DMSO:Ethanol) to prepare 4× working stock solutions. The HTRF detection reagents were an antibody to phosphotyrosine, labeled with Eu(K) (the HTRF donor), and a streptavidin-XL665 (the HTRF acceptor).

[6] = tested on: best-corrected visual acuity (BCVA); conditions: intravitreal, 4 week intervals, Phase III trials; cited from earlier work
[7] = 20 μg/1.0%, * significant vs vehicle-injected controls
[8] = 50 ng/ml VEGF, BrdU incorporation

| Molecule | Efficacy (0.1%) [2] | Efficacy (1%) [2] | ED50 (nmole) [2] | ED50 (μg) [2] | Potency [2] | ED50 (nmole) [3] | ED50 (μg) [3] | Potency [3] | Efficacy (0.1%) Median-value [3] | Efficacy (1%) Median-value [3] | ED50 (nmole) [4] | ED50 (μg) [4] | Potency [4] | Prevention Efficacy ([5]; 2 μg/0.1%) | Prevention Efficacy [5, 7] | EC50 [1, 8] | also measured |
| --- | --- | --- | --- | --- | --- | --- | --- | --- | --- | --- | --- | --- | --- | --- | --- | --- | --- |
| Cc1cccc(NC(=O)Nc2ccc(-c3cncc4[nH]nc(N)c34)cc2)c1 [Compound I, 1-[4-(3-Amino-1H-pyrazolo[3,4-c]pyridin-4-yl)-phenyl]-3-m-tolyl-urea] | 65.4%* | 88.9%* | 4.04^ nmole | 1.447 µg | 1.2* | 13.44 nmol | 4.82 µg | 5.75 | 100%* | 100%* | 25.47 nmol | 9.13 µg | 2.26 | −53.8% | 37.6% | – | EC50 [1]: 0.16 nM |
| Cc1cccc(NC(=O)Nc2ccc(-c3csc4ncnc(N)c34)cc2)c1 [Compound II, 1-[4-(4-Amino-thieno[2,3-d]pyrimidin-5-yl)-phenyl]-3-m-tolyl-urea] | 85.2%* | 85.7%* | 7.62 nmol | 2.86 µg | 0.392* | 12.17 nmol | 4.57 µg | 6.23 | 32.2% | 100%* | 24.31 nmol | 9.13 µg | 2.3 | 2 μg/0.1% = 40.6% | 20 μg/1.0% = 69.0%* | 0.11 nM | Relative Potency vs Reference ([1]; BREC proliferation, relative to reference standard RTKi): 14.5 ± 15.1 |
| Cc1cc(O)cc(NC(=O)Nc2ccc(-c3cccc4[nH]nc(N)c34)cc2)c1 [III, 1-[4-(3-Amino-1H-indazol-4-yl)-phenyl]-3-(3-hydroxy-5-methyl-phenyl)-urea] | −96.7% | −316.9% | >80.3 nmol | >30 µg | 0.028 | 15.85 nmol | 5.92 µg | 4.03 | 1.5% | 100%* | – | – | – | – | – | 0.45 ± 0.05 nM | – |
| COCCOc1ccc(-c2ccc(NC(=O)Nc3cccc(C)c3)cc2)c2c(N)n[nH]c12 [IV, 1-{4-[3-Amino-7-(2-methoxy-ethoxy)-1H-indazol-4-yl]-phenyl}-3-m-tolyl-urea] | 73.9%* | −148.2% | – | – | – | 13.23 nmol | 5.71 µg | 4.2 | 100%* | 100%* | – | – | – | 2 μg/0.1% = 1.1% | 20 μg/1.0% = 49.7%* | 0.1 ± 0.01 nM | Prevention Efficacy ([5]; 6 μg/0.3%): 6 μg/0.3% = 13.9% |
| Cc1ccc(F)c(NC(=O)Nc2ncc(-c3cccc4[nH]nc(N)c34)cn2)c1 [IX] | – | – | – | – | – | – | – | – | – | – | – | – | – | – | – | – | IC50 (KDR (VEGFR2) kinase): > 10000 nM; activity against KDR (KDR (VEGFR2) kinase): essentially have no activity; VEGF ind BREC prolif EC50 [1, 8]: Not Active; activity against VEGF-induced proliferation [1]: completely inactive |
| Cc1cccc(NC(=O)Nc2ccc(-c3csc4ccnc(N)c34)cc2)c1 [V, 1-[4-(4-Amino-thieno[3,2-c]pyridin-3-yl)-phenyl]-3-m-tolyl-urea] | 64.0% | 40.4% | 3.8^ nmole | 1.42 µg | 1.38* | 24.11 nmol | 9.03 µg | 1.94 | 16.9% | 100%* | – | – | – | – | – | 1.57 ± 1.24 nM | – |
| Cc1cccc(NC(=O)Nc2ccc(-c3csc4c(-c5ccncc5)cnc(N)c34)cc2)c1 [VI, 1-[4-(4-Amino-7-pyridin-4-yl-thieno[3,2-c]pyridin-3-yl)-phenyl]-3-m-tolyl-urea] | 106.5%* | 70.6%* | – | – | – | 13.31 nmol | 6.01 µg | 3.86 | 35.7% | 88.4* % | 39.46 nmol | 17.82 µg | 1.75 | – | – | 0.07 ± 0.069 nM | – |
| Cc1cccc(NC(=O)Nc2ccc(-c3csc4c(-c5cccnc5)cnc(N)c34)cc2)c1 [VII, 1-[4-(4-Amino-7-pyridin-3-yl-thieno[3,2-c]pyridin-3-yl)-phenyl]-3-m-tolyl-urea] | 84%* | 73.5%* | 5.47 nmol | 2.47 µg | 0.621* | 15.74 nmol | 7.11 µg | 3.23 | 9.6% | 100* % | 20.86 nmol | 9.42 µg | 2.49 | – | – | 0.11 ± 0.086 nM | – |
| Nc1n[nH]c2cccc(-c3ccc(NC(=O)Nc4c(Cl)cccc4Cl)cc3)c12 [VIII] | – | – | – | – | – | – | – | – | – | – | – | – | – | – | – | – | IC50 (KDR (VEGFR2) kinase): > 10000 nM; activity against KDR (KDR (VEGFR2) kinase): essentially have no activity; VEGF ind BREC prolif EC50 [1, 8]: Not Active; activity against VEGF-induced proliferation [1]: completely inactive |
| Lucentis: Fab fragment of a humanized monoclonal antibody that binds all isoforms of VEGF-A (antibody, chains of the INN, looked up, V domains shown, Fab) VH: EVQLVESGGGLVQPGGSLRLSCAASGYDFTHYGMNWVRQAPGKGLEWVGWINTYTGEPTYAADFKRRFTFSLDTSKSTAYLQMNSLRAEDTAVYYCAKYPYYYGTSHWYFDVWGQGTLVTVSS VL: DIQLTQSPSSLSASVGDRVTITCSASQDISNYLNWYQQKPGKAPKVLIYFTSSLHSGVPSRFSGSGSGTDFTLTISSLQPEDFATYYCQQYSTVPWTFGQGTKVEIK | – | – | – | – | – | – | – | – | – | – | – | – | – | – | – | – | treated patients with maintained best-corrected visual acuity (BCVA) [6]: 95% |
